ChEMBL document CHEMBL1201862, “PubChem BioAssay data set” (2004)
Calls of active or inactive are those of the source.

What was measured:
Aspartyl aminopeptidase = Aspartyl aminopeptidase (Plasmodium falciparum 3D7, UniProt Q8I2J3)
Procathepsin L = Procathepsin L (Homo sapiens, UniProt P07711)
[1] = biological target: T1, Rac GTPase-activating protein 1 (Homo sapiens, UniProt Q9H0H5); test: MgcRacGAP GTPase-activating activity inhibitors, confirmation, biochemical, ADP Hunter fluorescence, primary and confirmatory (AID 624330); type: functional
T1 sequence (Q9H0H5 whole entry): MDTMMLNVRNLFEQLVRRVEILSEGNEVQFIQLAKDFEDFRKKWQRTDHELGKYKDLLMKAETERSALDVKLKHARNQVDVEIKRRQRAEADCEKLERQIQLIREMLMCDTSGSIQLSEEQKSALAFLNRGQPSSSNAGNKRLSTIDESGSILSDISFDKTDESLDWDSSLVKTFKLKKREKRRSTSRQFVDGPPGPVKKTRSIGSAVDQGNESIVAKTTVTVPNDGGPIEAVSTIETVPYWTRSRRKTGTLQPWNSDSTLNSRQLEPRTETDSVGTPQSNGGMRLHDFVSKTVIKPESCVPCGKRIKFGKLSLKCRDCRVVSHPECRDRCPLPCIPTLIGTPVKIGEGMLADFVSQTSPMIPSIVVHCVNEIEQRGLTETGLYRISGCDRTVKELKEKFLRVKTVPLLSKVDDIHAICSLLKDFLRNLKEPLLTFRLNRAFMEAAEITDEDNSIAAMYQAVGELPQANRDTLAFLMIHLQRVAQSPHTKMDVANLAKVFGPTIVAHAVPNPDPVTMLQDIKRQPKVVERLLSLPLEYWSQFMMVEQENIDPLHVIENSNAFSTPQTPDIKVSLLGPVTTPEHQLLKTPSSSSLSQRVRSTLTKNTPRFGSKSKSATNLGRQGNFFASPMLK

[2] = biological target: Voltage-gated N-type calcium channel alpha-1B subunit/Amyloid beta A4 precursor protein-binding family A member 1 (Homo sapiens, UniProt Q00975+Q02410); test: disruptors of Mint-PDZ/N-type channel peptide interaction – biochemical, HTRF, set 2, SAR follow-up (AID 434980); type: functional
[3] = tested on: Streptococcus sp. 'group A'; test: growth inhibition of control SK(-) GAS strain, dose response, counter-screen for streptokinase expression inhibitor project, luminescence, kanamycin, BacTiterGlo, confirmation (AID 1900); type: functional, organism-based
[4] = biological target: Serine/threonine-protein phosphatase PP1-alpha catalytic subunit (Homo sapiens, UniProt P62136); test: PP1 phosphatase inhibitors, dose response, biochemical, fluorescence (AID 2403);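 also: phosphatase turnover of OMFP into fluorescent 3-O-methylfluorescein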
Serine/threonine-protein phosphatase PP1-alpha catalytic subunit, sequence (P62136 whole entry): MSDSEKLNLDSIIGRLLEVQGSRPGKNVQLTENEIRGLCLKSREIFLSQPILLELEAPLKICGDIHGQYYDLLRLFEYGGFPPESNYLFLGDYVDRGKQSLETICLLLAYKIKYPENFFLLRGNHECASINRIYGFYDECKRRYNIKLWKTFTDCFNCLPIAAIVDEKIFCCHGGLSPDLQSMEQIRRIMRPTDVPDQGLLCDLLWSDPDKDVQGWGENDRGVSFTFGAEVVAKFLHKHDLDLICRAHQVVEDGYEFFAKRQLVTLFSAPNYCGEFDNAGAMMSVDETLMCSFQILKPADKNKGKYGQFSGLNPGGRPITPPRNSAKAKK

[5] = inhibitors of intracellular T. cruzi replication, confirmation, NIH3T3 host cells, beta-gal luminescence (AID 2044); type: functional, cell-based;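 also: intracellular parasites grown in NIH/3T3 mouse fibroblasts as host cells; luminescent beta-galactosidase reporter signal from transgenic T. cruzi replicating inside host cells; inhibitors lower the luminescence signal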
[6] = biological target: T2, Serine/threonine-protein phosphatase (Homo sapiens, UniProt Q9BPW0); test: Counterscreen for inhibitors of PP1: fluorescence-based biochemical high throughput dose response assay to identify inhibitors of Protein Phosphatase 5 (PP5). [Related pubchem assays: 2034 (Summary (PP5 inhibitors)), 1987 (PP5 inhibitors in singlate), 2235 (PP1 inhibitors in singlate)]
T2 sequence (Q9BPW0 whole entry): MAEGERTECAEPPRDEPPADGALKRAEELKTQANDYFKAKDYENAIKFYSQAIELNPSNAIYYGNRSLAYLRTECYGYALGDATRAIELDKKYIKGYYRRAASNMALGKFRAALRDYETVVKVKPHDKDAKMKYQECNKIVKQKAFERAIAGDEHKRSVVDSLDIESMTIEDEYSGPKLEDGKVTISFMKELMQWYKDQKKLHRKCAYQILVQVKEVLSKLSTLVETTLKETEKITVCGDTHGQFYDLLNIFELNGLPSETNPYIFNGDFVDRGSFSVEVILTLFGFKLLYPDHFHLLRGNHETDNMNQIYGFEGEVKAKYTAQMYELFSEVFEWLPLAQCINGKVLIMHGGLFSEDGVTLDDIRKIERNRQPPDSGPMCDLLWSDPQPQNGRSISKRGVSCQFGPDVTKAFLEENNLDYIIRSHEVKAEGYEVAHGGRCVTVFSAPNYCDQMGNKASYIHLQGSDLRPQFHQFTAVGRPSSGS

[7] = cytotoxicity toward NIH3T3 fibroblasts, dose response, counter-screen, cell-based, ATP luminescence, mouse fibroblasts (AID 2010); type: functional;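 also: cells exposed to compound for about 90 hours before reading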
Streptococcus = test: Group A Streptococcus viability loss, dose response, counter-screen for streptokinase expression inhibitor project, luminescence, BacTiterGlo (AID 1915); type: functional, organism-based;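 also: potency for reduction of bacterial viability or growth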
INS1 = test: beta cell apoptosis inhibitors, cytokine rescue, dose response, luminescence, retest (AID 449756); type: functional, cell-based; conditions: Rattus norvegicus;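 also: cell death triggered by IL-1 beta plus TNF-alpha plus IFN-gamma mixture; protective hits raise ATP signal compared with cytokine alone wells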
Protein Rev = Protein Rev (Human immunodeficiency virus type 1 group M subtype B (isolate HXB2)(HIV-1), UniProt P04618); test: inhibitors of Rev binding to RRE RNA, dose response, biochemical, fluorescence polarization, HIV-1 (AID 434976); parameters: species or system Human immunodeficiency virus 1
Protein Rev, sequence (P04618 whole entry): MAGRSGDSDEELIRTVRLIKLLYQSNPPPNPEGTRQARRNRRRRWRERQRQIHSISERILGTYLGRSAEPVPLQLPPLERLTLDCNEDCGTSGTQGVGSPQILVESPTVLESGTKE

[8] = biological target: Female germline-specific tumor suppressor gld-1 (Caenorhabditis elegans, UniProt Q17339); test: inhibitors of GLD-1 binding to TGE RNA, dose response, biochemical, fluorescence polarization, C. elegans (AID 2802);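 also: fluorescence polarization of labeled TGE RNA bound by purified gld-1 protein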
Female germline-specific tumor suppressor gld-1, sequence (Q17339 whole entry, the tested form may be a part): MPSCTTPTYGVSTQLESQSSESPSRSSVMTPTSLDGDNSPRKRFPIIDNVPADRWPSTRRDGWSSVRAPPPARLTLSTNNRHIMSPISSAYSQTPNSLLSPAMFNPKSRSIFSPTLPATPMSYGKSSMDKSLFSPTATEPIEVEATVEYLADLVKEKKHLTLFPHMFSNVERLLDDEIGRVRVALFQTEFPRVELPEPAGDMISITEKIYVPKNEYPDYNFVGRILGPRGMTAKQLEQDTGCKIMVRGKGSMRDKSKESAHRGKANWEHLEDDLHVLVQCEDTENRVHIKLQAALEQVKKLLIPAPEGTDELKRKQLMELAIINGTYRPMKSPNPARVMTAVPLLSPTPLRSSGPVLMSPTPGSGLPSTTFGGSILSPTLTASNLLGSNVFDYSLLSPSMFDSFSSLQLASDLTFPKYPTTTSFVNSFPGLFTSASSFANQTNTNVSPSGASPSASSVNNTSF

CHO = test: cytotoxicity in TLR9-MyD88 CHO cells, dose response, cytotoxicity control for TLR9-MyD88 binding inhibitor project, cell-based, luminescence (AID 588339); type: functional, hamster; conditions: Cricetulus griseus;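 also: CHO cells stably coexpressing TLR9 and MyD88 fusions from primary screen; compound exposure lasted 48 hours before viability readout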
Beta Lactamase = Beta Lactamase (Pseudomonas aeruginosa, UniProt Q932Y6); test: beta-lactamase reporter inhibitor potency, dose response, artefact control for TLR9-MyD88 binding inhibitor project, BLA reporter cells, FRET fluorescence (AID 588341); type: cell-based;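 also: cell based assay in CHO-K1 cells stably expressing beta-lactamase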
Beta Lactamase, sequence (Q932Y6 whole entry): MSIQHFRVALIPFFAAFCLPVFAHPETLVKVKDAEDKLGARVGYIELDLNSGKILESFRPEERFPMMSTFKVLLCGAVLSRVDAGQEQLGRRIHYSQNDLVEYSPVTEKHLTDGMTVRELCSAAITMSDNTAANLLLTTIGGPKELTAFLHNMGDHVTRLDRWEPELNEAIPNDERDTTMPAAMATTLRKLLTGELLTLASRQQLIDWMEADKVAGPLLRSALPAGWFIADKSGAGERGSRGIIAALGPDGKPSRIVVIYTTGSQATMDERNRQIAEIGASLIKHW

[9] = biological target: T3, Polyadenylate-binding protein 1 (Homo sapiens, UniProt P11940); test: PABP1 MLLE–PAM2 interaction inhibitors, dose response, miRNA deadenylation inhibitor project, biochemical, fluorescence polarization, Cy5-PAM2 peptide, secondary (AID 602260); type: functional; conditions: read-out: IC50_Mean
T3 sequence (P11940 whole entry): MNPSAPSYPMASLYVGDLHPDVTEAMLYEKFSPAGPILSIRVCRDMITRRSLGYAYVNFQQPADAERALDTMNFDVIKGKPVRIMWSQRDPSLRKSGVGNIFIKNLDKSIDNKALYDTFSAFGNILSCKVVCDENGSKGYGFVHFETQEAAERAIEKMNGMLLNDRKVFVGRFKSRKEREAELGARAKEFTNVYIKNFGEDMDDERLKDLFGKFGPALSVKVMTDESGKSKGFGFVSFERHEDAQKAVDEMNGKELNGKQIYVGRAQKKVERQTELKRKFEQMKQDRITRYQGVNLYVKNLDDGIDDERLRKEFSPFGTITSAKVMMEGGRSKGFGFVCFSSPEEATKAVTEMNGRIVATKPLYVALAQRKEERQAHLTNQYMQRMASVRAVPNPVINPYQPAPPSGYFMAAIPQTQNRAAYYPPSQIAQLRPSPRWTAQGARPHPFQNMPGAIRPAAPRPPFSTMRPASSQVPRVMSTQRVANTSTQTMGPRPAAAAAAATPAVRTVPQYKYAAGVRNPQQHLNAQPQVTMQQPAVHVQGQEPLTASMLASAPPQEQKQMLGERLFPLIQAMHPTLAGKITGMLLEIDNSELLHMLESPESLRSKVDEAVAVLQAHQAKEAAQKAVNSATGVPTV

[10] = biological target: T3, Polyadenylate-binding protein 1; test: PABP1 MLLE–PAM2 binding inhibitor potency, dose response, biochemical, fluorescence polarization, FITC-PAM2 peptide (AID 602259); type: functional; conditions: read-out: IC50_Mean
[11] = biological target: T4, RNA-binding protein pos-1 (Caenorhabditis elegans, UniProt G5EF15); test: inhibitors of POS-1/mex-3 RNA binding, dose response, biochemical, fluorescence polarization (AID 1964);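 also: purified POS-1 fused to maltose binding protein made in E. coli; potency of compounds blocking POS-1 binding to fluorescent RNA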
T4 sequence (G5EF15 whole entry): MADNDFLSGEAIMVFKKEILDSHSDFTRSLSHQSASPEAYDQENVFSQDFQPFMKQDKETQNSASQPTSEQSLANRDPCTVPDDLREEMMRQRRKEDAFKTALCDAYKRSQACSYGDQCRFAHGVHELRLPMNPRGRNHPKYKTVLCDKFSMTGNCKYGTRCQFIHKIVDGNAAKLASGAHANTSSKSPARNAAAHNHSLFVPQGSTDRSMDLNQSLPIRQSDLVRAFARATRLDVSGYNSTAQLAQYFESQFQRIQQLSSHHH

cells [12] = type: functional, cell-based
[13] = biological target: T5, Zinc finger protein mex-5 (Caenorhabditis elegans, UniProt Q9XUB2); test: MEX-5/TCR-2 RNA interaction inhibitors, dose response, biochemical, C. elegans, fluorescence polarization (AID 1960)
T5 sequence (Q9XUB2 whole entry): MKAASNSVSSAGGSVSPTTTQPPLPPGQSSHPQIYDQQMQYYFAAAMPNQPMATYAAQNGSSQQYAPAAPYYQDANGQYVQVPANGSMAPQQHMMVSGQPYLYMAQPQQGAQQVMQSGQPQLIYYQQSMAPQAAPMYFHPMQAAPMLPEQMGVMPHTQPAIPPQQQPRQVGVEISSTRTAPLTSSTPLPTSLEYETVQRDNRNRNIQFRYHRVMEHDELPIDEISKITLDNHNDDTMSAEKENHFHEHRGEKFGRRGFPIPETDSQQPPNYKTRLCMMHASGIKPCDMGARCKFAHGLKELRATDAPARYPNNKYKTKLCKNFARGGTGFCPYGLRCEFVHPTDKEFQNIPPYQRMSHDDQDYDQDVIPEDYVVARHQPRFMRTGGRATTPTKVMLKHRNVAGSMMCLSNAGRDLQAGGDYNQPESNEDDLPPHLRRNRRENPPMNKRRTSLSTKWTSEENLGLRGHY

Large T antigen = Large T antigen (Simian virus 40, UniProt P03070); type: functional, Betapolyomavirus macacae;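 also: Confirmatory-stage PubChem screen for compounds that inhibit SV40 T antigen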
Large T antigen, sequence (P03070 whole entry): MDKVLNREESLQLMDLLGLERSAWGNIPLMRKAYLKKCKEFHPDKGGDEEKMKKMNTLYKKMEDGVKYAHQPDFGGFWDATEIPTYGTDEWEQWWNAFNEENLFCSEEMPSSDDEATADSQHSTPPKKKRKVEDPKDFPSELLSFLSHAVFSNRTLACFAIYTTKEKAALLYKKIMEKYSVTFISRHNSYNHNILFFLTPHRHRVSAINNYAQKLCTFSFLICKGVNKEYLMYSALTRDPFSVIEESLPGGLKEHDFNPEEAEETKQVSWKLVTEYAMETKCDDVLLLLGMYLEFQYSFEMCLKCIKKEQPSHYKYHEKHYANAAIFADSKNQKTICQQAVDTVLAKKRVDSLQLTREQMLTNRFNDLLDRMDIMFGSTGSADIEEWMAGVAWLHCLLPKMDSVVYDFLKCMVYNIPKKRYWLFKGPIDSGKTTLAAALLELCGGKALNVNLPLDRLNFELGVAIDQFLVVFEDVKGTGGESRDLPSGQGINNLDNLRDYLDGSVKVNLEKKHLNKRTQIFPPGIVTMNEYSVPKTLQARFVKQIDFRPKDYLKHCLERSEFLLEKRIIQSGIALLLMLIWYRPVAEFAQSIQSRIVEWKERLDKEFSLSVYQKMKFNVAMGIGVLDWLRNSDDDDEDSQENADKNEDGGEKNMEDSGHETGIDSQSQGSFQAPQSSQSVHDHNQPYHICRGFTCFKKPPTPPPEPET

cells [14] = type: functional, cell-based; remark: listed apart in the source
[15] = biological target: FAD-linked sulfhydryl oxidase ALR (Homo sapiens, UniProt P55789); test: inhibitors of human ALR sulfhydryl oxidase, dose response, biochemical, H2O2 detection, luminescence, cherry-pick (AID 493248)
FAD-linked sulfhydryl oxidase ALR, sequence (P55789 whole entry): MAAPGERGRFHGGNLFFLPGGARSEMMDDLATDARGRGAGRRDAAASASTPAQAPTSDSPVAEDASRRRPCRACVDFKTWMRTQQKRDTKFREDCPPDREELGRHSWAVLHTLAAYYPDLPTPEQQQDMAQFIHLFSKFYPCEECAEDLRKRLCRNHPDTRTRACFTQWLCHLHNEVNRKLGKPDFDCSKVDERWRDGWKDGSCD

Aspartyl aminopeptidase, sequence (Q8I2J3 whole entry): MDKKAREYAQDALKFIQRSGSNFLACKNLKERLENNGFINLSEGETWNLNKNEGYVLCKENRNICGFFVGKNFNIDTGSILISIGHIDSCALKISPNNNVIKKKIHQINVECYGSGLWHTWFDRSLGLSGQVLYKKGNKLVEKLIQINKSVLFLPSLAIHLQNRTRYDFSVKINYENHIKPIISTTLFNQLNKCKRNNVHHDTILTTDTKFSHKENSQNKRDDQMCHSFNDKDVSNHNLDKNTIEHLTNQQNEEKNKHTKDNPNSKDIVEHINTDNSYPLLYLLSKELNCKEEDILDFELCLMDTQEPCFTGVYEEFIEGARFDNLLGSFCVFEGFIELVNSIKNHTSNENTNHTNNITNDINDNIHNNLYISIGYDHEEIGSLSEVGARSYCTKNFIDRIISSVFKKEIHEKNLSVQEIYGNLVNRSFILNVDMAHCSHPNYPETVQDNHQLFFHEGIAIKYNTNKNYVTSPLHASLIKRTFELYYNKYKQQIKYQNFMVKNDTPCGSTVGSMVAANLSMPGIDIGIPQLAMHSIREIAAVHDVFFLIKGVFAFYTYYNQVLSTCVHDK
Procathepsin L, sequence (P07711 whole entry): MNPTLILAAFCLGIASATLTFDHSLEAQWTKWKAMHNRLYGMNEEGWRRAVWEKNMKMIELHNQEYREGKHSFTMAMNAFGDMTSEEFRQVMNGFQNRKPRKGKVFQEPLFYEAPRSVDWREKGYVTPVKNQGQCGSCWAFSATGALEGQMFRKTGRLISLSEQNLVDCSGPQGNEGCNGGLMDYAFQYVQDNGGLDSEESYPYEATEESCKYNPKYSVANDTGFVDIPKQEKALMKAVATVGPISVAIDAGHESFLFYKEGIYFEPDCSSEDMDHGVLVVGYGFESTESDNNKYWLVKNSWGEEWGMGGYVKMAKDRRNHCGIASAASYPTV

What does the source list for `O=C(/C=C/c1ccc(O)c(O)c1)NC(=O)c1ccccc1O`?
IC50 (Aspartyl aminopeptidase): 1.47 µM (active); IC50 (Procathepsin L): > 59.6 µM (not active); IC50 [1]: 20.2 µM (active)

Which IC50 [2] does the source give for `CC(C)(C)CCNC(=O)c1cc(-c2ccco2)nc2ccccc12` here?
The IC50 was > 56.8 µM (inactive).

For `CCOC(=O)c1cnc(-n2nc(C)cc2C)nc1NC(C)c1ccccc1` (centres undefined), which EC50 [3] is on record?
Its EC50 is 5.04 µM (active).

What about the IC50 [4] of the same molecule?
The IC50 was 5.88 µM (active).

And the EC50 [5]?
The EC50 was 1.46 µM (active).

What about the IC50 [6] of the same molecule?
The IC50 was > 67 µM (not active).

And the EC50 [7]?
The EC50 was > 60 µM (not active).

And the EC50 (Streptococcus)?
Its EC50 is 5.89 µM (active).

And the AC50 (INS1)?
Its AC50 is 4.89 µM (active).

With `O=C(CN1C(=O)NC2(CCCCC2)C1=O)Oc1ccc2c(C(F)(F)F)cc(=O)oc2c1` as the molecule, how does the IC50 (Protein Rev) read?
Its IC50 is 65.3 µM (not active).

What about the IC50 [8] of the same molecule?
The IC50 was 4.07 µM (active).

And the IC50 (CHO)?
The IC50 was > 49.7 µM (inactive).

And the IC50 (Beta Lactamase)?
Its IC50 is 3.48 µM (active).

What about the IC50 [9] of the same molecule?
The IC50 was > 66 µM (inactive).

And the IC50 [10]?
The IC50 was 38.3 µM (inactive).

For `COc1ccc(NS(=O)(=O)c2ccc(Cl)s2)cn1`, which IC50 (Protein Rev) is on record?
The IC50 was 6.3 µM (active).

And the IC50 [8]?
Its IC50 is 4.54 µM (active).

What about the IC50 [9] of the same molecule?
The IC50 was > 66 µM (inactive).

And the IC50 [10]?
Its IC50 is 14.9 µM (active).

For `Oc1ccc(-c2cn3ccccc3n2)cc1O`, which EC50 [11] is on record?
The EC50 was > 300 µM (not active).

What about the IC50 (Aspartyl aminopeptidase) of the same molecule?
Its IC50 is 2.56 µM (active).

And the EC50 (cells [12])?
The EC50 was > 350 µM (not active).

What about the IC50 (Procathepsin L) of the same molecule?
Its IC50 is > 59.6 µM (not active).

And the EC50 [13]?
Its EC50 is 13.6 µM (active).

What about the IC50 (Large T antigen) of the same molecule?
Its IC50 is 5.28 µM (active).

And the EC50 (cells [14])?
The EC50 was 25.3 µM (active).

What about the AC50 [15] of the same molecule?
The AC50 was 1.32 µM (active).
